Laboratory results as given in patent US12171229B2, “Heteroaryl-triazole and heteroaryl-tetrazole compounds as pesticides” (BAYER AKTIENGESELLSCHAFT, priority 2018, dated 2024).

Assays:
Assay type in all cases: in vivo
Myzus persicae = Myzus persicae oral test; conditions: 120 h, 4 ppm, after 5 days
Protocol: Solvent: 100 parts by weight acetone
To produce a suitable preparation of active compound, 1 part by weight of active compound is mixed with the stated amount of solvent, and the concentrate is diluted with water to the desired concentration.
50 μl compound solution is filled in microtiter plates and 150 μl IPL41 insect medium (33%+15% sugar) is added to obtain a total volume of 200 μl per well. Afterwards the plates are sealed with parafilm through which a mixed population of the green peach aphid (Myzus persicae) can suck on the compound preparation.
After 5 days mortality in % is determined. 100% means all aphids have been killed and 0% means none of the aphids have been killed.

Diabrotica balteata = Diabrotica balteata spray test; conditions: Diabrotica balteata, in Triticum aestivum, 168 h, after 7 days, larvae on wheat seeds, read-out: efficacy (seedlings grown up); for pest or weed control at 160 µg/disc, 500 g/ha: 160 μg/well (=500 g/ha); for pest or weed control at 80 µg/disc, 250 g/ha: 80 μg/well (=250 g/ha)
Protocol: Diabrotica balteata—Spray Test [table] To produce a suitable preparation of active compound, 1 part by weight of active compound is mixed with the stated amount of solvent, and the concentrate is diluted with water, containing an emulsifier concentration of 1000 ppm, to the desired concentration. Further test concentrations are prepared by dilution with emulsifier containing water. Soaked wheat seeds (Triticum aestivum) are placed in a multiple well plate filled with agar and some water and are incubated for 1 day to germinate (5 seeds per well). The germinated wheat seeds are sprayed with a test solution containing the desired concentration of the active ingredient. Afterwards each unit is infected with 10-20 larvae of the banded cucumber beetle (Diabrotica balteata). After 7 days efficacy in % is determined. 100% means all the seedlings have grown up like in the untreated, uninfected control; 0% means none of the seedlings have grown.

Nezara viridula = Nezara viridula spray test; conditions: 96 h, after 4 days, larvae on barley plants
Protocol: Nezara viridula—Spray Test
(§1) To produce a suitable preparation of active compound, 1 part by weight of active compound is mixed with the stated amount of solvent, and the concentrate is diluted with water, containing an emulsifier concentration of 1000 ppm, to the desired concentration. Further test concentrations are prepared by dilution with emulsifier containing water.
Barley plants (Hordeum vulgare) infested with larvae of the southern green stink bug (Nezara viridula) are sprayed with a test solution containing the desired concentration of the active ingredient.
After 4 days mortality in % is determined. 100% means all the stink bugs have been killed: 0% means none of the stink bugs have been killed.

Spodoptera frugiperda = Spodoptera frugiperda spray test; conditions: 168 h, after 7 days, larvae on maize leaf sections
Protocol: Spodoptera frugiperda—Spray Test
as §1, with “solvents” for “solvent,”, “and” for “and the concentrate”
Maize (Zea mays) leaf sections are sprayed with a preparation of the active ingredient of the desired concentration. Once dry, the leaf sections are infested with fall armyworm larvae (Spodoptera frugiperda).
After 7 days mortality in % is determined. 100% means all caterpillars have been killed and 0% means none of the caterpillars have been killed.

Boophilus microplus = Boophilus microplus injection test; conditions: Rhipicephalus microplus, 168 h; 20 μg/animal injected into the abdomen; adult engorged female ticks; egg deposition after 7 days; read-out: efficacy (infertile eggs)
Protocol: Boophilus Microplus—Injection Test Solvent: dimethyl sulfoxide To produce a suitable preparation of active compound, 10 mg of active compound are dissolved in 0.5 ml solvent, and the concentrate is diluted with solvent to the desired concentration. Five adult engorged female ticks (Boophilus microplus) are injected with 1 μl compound solution into the abdomen. The ticks are transferred into replica plates and incubated in a climate chamber. After 7 days egg deposition of fertile eggs is monitored. Eggs where fertility is not visible are stored in a climate chamber till hatching after about 42 days. An efficacy of 100% means all eggs are infertile; 0% means all eggs are fertile.

Ctenocephalides felis = Ctenocephalides felis oral test; conditions: 48 h, 100 ppm in cattle blood, after 2 days, adult unfed cat fleas
Protocol: Ctenocephalides Felis—Oral Test
Solvent: dimethyl sulfoxide
To produce a suitable preparation of active compound, 10 mg of active compound are dissolved in 0.5 ml solvent, and the concentrate is diluted with cattle blood to the desired concentration.
Approximately 20 adult unfed cat fleas (Ctenocephalides felis) are placed in flea chambers. The blood chamber, sealed with parafilm on the bottom, are filled with cattle blood supplied with compound solution and placed on the gauze covered top of the flea chamber, so that the fleas are able to suck the blood. The blood chamber is heated to 37° C. whereas the flea chamber is kept at room temperature.
After 2 days mortality in % is determined. 100% means all the fleas have been killed; 0% means none of the fleas have been killed.

SMILES | mortality at 4 ppm (Myzus persicae) [%] | pest or weed control at 160 µg/disc, 500 g/ha (Diabrotica balteata) [%] | mortality at 100 g/ha (Nezara viridula) [%] | mortality at 500 g/ha (Nezara viridula) [%] | mortality at 500 g/ha (Spodoptera frugiperda) [%] | pest or weed control at 80 µg/disc, 250 g/ha (Diabrotica balteata) [%] | pest or weed control at 0.02 mg (Boophilus microplus) [%] | mortality at 100 g/ha (Spodoptera frugiperda) [%] | mortality at 100 ppm (Ctenocephalides felis) [%]
C[C@H](NC(=O)c1cc(Cl)cc(C(F)(F)F)c1)c1ncnn1-c1ccc(C(=O)NC2(C#N)CC2)cn1 [Example I-112] | 90 | 100 | 100 | 100 | 83 |  |  |  | 
Cc1cc(C(=O)N[C@@H](C)c2ncnn2-c2ccc(C#N)cn2)cc(C(F)(F)F)c1 [Example I-040] | 100 | 100 |  |  | 100 | 100 | 100 | 100 | 100
C[C@H](NC(=O)c1cc(Cl)cc(C(F)(F)F)c1)c1ncnn1-c1ccc(S(C)(=O)=O)cn1 [Example I-062] |  | 100 |  | 100 | 100 | 100 | 100 | 100 | 100
C[C@H](NC(=O)c1cc(Cl)cc(OC(F)(F)F)c1)c1ncnn1-c1ccc(N)cn1 [Example I-101] | 100 | 100 |  | 100 | 100 | 100 |  |  | 
C[C@H](NC(=O)c1cc(Cl)cc(C(F)(F)F)c1)c1ncnn1-c1ccc(NC(=O)c2ccc(F)cc2)cn1 [Example I-036] | 100 | 100 |  |  | 100 | 100 | 100 | 100 | 100
C[C@H](NC(=O)c1cc(C(F)(F)F)cc(C(F)(F)F)c1)c1ncnn1-c1nccs1 [Example I-103] | 100 | 100 | 100 | 100 | 100 | 100 |  | 100 | 
C[C@H](NC(=O)c1cc(Cl)cc(C(F)(F)F)c1)c1ncnn1-c1ccc(NC(=O)C(F)(F)F)cn1 [Example I-072] | 90 | 100 |  |  | 100 | 100 |  | 83 | 
C[C@H](NC(=O)c1cc(Cl)cc(C(F)(F)F)c1)c1ncnn1-c1ccc(C(N)=O)cn1 [Example I-100] | 100 | 100 |  | 100 | 100 | 100 |  | 100 | 100
C[C@H](NC(=O)c1cc(Cl)cc(C(F)(F)F)c1)c1ncnn1-c1ccc(S(=O)(=O)C(F)(F)F)cn1 [Example I-027, 3-chloro-5-(trifluoromethyl)-N-[(1S)-1-(1-{5-[(trifluoromethyl)sulfonyl]pyridin-2-yl}-1H-1,2,4-triazol-5-yl)ethyl]benzamide] |  | 100 |  |  | 100 | 100 | 100 | 100 | 100
C[C@H](NC(=O)c1cc(Cl)cc(C(F)(F)F)c1)c1ncnn1-c1ccc(OC(F)(F)F)cn1 [Example I-016] |  | 100 |  |  | 100 | 100 | 100 | 100 | 100
C[C@H](NC(=O)c1cc(Cl)cc(C(F)(F)F)c1)c1ncnn1-c1ccc(-n2ccc(C(F)(F)F)n2)cn1 [Example I-045, 3-chloro-5-(trifluoromethyl)-N-[(1S)-1-(1-{5-[3-(trifluoromethyl)-1H-pyrazol-1-yl]pyridin-2-yl}-1H-1,2,4-triazol-5-yl)ethyl]benzamide] |  | 80 |  |  | 100 | 100 | 100 | 100 | 95
